The source of these data is US20240150277A1, “Covalent PPARG inverse-agonists” (Bayer Aktiengesellschaft, priority 2022, published 2024).

Where two headings read alike, the source gives them in different places.

One experiment has as its system UMUC9 cells. The experiment can be described thus: Proliferation UMUC9 H2B-GFP assay (Incucyte). The following applies: 7 days of treatment; for Emax: UM-UC-9, 168 h; for IC50: Day 1 subtracted, percentage of DMSO control. Format: cell-based. Here is the method:
Proliferation UMUC9 H2B-GFP assay
Instrument: Incucyte® (Sartorius).
Description: Incucyte® Proliferation Assay measures cell proliferation based on nuclei count using live-cell time-lapse imaging. […] Measurements were performed on the day of treatment (Day 1 reading) and after 7 days of treatment (Day 8 reading). Green fluorescence in cell nuclei is measured using the instrument (Image Channels: Phase, Green; Acquisition time: 300 ms; Magnification: 4×).
Analysis: Selected metrics for analysis: Phase Object Confluence (Percent), Nuclei Count (1/Well) and Total Nuclei Area (μm^2/Well). Day 1 measurements were subtracted from each Day 8 measurement and expressed as percentage of the vehicle (DMSO) control. Percentage proliferation values were then plotted against compound concentration using GraphPad PRISM software. The Sigmoidal 4PL X is log (concentration) model of […] was used. Relative IC50 values and % efficacy (span) is reported below.

The next experiment has as its target T1, PPARG receptors (Homo sapiens, UniProt P37231).
T1 construct: leading to PPARG dependent expression of the NanoLuc@ Luciferase; endogenous in cells
T1 sequence (P37231 1-505): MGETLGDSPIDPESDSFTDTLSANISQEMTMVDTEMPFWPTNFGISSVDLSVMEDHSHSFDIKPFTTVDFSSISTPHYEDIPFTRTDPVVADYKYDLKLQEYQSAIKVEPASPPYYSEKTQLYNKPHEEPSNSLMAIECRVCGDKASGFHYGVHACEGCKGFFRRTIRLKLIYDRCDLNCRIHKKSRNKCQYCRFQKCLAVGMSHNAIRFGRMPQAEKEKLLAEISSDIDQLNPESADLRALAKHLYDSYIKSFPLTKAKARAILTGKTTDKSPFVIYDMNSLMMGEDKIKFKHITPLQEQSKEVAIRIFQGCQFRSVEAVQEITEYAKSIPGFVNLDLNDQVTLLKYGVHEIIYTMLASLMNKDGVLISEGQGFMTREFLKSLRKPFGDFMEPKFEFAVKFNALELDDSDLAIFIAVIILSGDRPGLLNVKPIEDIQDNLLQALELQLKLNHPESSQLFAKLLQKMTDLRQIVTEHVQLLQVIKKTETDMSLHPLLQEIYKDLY
The experiment can be described thus: RT-112-FABP4-NLuc Reporter Gene Assay (inverse agonism). Format: cell-based. The settings on record: incubated over night; for IC50: 50 μM to 0.03 nM; for Emax: RT112/84, read-out: PPARG_RT-112_FABP4_NLuc_inverse agonist Efficacy - [%], bladder cancer cell line RT-112/84, NanoLuc in FABP4 3′ UTR. Here is the method:
Inverse agonists reduce the basal expression of the Luciferase resulting in a decrease of the Luciferase signal after addition of substrate and cell lysis. To exclude toxic effects of the compounds a parallel measurement of cell viability was performed based on the CellTiter Glo Assay (Promega).
On the next day 10 μl of test compounds dissolved in DMEM/F12 2% FBS and 0,01% BSA are placed in the wells of the microtiter plates. Final concentrations ranged from 50 μM to 0.03 nM. […] On the next day the NanoLuc Luciferase activity was measured by addition of 40 μl of NanoLuc substrate and lysis buffer (Promega, Madison, Wisconsin) diluted in 2 mM Ca-tyrode buffer (20 mM HEPES, 130 mM NaCl, 5 mM KCl, 5 mM NaHCO3, 2 mM MgCl2, pH 7,4). The resulting light signal was measured for 60 seconds in a luminometer. Every sample was tested in quadruples and mean values were used to calculate the IC50 values and efficacies of the compounds.
A general note: In a reporter assay the amount or activity of a reporter protein is the signal.

The mark [1] stands for this setting: PPARG_RT-112_FABP4_NLuc_inverse agonist IC50 - [mol/l], bladder cancer cell line RT-112/84, NanoLuc in FABP4 3′ UTR.
Where [2] appears, read: read-out: PPARG_RT-112_FABP4_NLuc_inverse agonist IC50 - [mol/l], bladder cancer cell line RT-112/84, NanoLuc in FABP4 3′ UTR.

Regarding `Cc1c(F)c(C(=O)NCc2ccc(F)c(F)c2)cc(C(=O)Nc2ccc(OCC(C)(C)O)cn2)c1Cl` [Example 52, 4-chloro-N^1-[(3,4-difluorophenyl)methyl]-6-fluoro-N^3-[5-(2-hydroxy-2-methylpropoxy)pyridin-2-yl]-5-methylbenzene-1,3-dicarboxamide], the Emax in the experiment on UMUC9 cells (% efficacy (span)) is 28.6%; at PPARG receptors it was 96%. Further, the IC50 with UMUC9 cells (UM-UC-9, relative IC50) is 746 nM; on PPARG receptors (setting [1]) it was 1.5 nM.
`CCCOCc1cc(F)ccc1CNC(=O)c1cc(C(=O)Nc2ccc(C(F)(F)F)cc2C)c(Cl)cc1F` [Example 4, 4-chloro-6-fluoro-N^1-{[4-fluoro-2-(propoxymethyl)phenyl]methyl}-N^3-[2-methyl-4-(trifluoromethyl)phenyl]benzene-1,3-dicarboxamide]: the Emax with UMUC9 cells (% efficacy (span)) came out at 138%; on PPARG receptors, 87%. Also, the IC50 in the experiment on UMUC9 cells (UM-UC-9, relative IC50) stood at 3.22 nM; on PPARG receptors (setting [1]), 8.35 nM.
For the molecule `COc1ccccc1CNC(=O)c1cc(Cl)c(Cl)c(C(=O)Nc2ccccc2)c1` [Example 15, 4,5-dichloro-N-[(2-methoxyphenyl)methyl]-N^3-phenylbenzene-_,3-dicarboxamide], the Emax with UMUC9 cells (% efficacy (span)) turned out to be 60.6%; at PPARG receptors, 70.7%. The IC50 in the experiment with UMUC9 cells (UM-UC-9, relative IC50) was found to be 7.96 nM; at PPARG receptors (setting [1]), 0.52 nM.
`O=C(NCc1ccccc1)c1cc(Cl)c(Cl)c(C(=O)Nc2ccc(C3COC3)cc2)c1F` [Example 33, N^1-benzyl-4,5-dichloro-2-fluoro-N3-[4-(oxetan-3-yl)phenyl]benzene-1,3-dicarboxamide]: the Emax in the experiment with UMUC9 cells (% efficacy (span)) was determined as 59.8%; at PPARG receptors, 94%. Further, the IC50 with UMUC9 cells (UM-UC-9, relative IC50) came to 4.91 nM; on PPARG receptors (setting [1]) it was 1.05 nM.
For `Cc1cc(N2CCCC(O)C2)ccc1NC(=O)c1cc(C(=O)NCc2ccc(F)c(F)c2)c(F)cc1Cl` (single isomer, unassigned) [Example 5, 4-chloro-N′-[(3,4-difluorophenyl)methyl]-6-fluoro-N^3-{4-[3-hydroxypiperidin-1-yl]-2-methylphenyl}benzene-1,3-dicarboxamide], the “UM-UC-9 GFP proliferation Efficacy - [%]” value with UMUC9 cells (% efficacy (span)) was found to be 78.67%. The IC50 worked out at 5.38 nM in the experiment with UMUC9 cells (relative IC50, read-out: UM-UC-9 GFP proliferation IC50 -) and 1.27 nM on PPARG receptors (setting [1]). For the same molecule, on PPARG receptors, the Emax came to 116%.
For the molecule `O=C(NCc1ccc(F)c(F)c1)c1ccc(Cl)c(C(=O)Nc2ccccc2)c1` [Example 44, 4-chloro-N^1-[(3,4-difluorophenyl)methyl]-N^3-phenylbenzene-1,3-dicarboxamide], the figures for the Emax in the experiment with UMUC9 cells (% efficacy (span)) and on PPARG receptors were 103% and 51.5%, respectively. On PPARG receptors (setting [2]), the IC50 stood at 7400 nM.
Take `O=C(NCc1ccc(F)cc1)c1cc(C(=O)Nc2ccc3oc(-c4cccc(Cl)c4)nc3c2)c(Cl)cc1F` [Example 22, 4-chloro-N^3-[2-(3-chlorophenyl)-1,3-benzoxazol-5-yl]-6-fluoro-N^1-[(4-fluorophenyl)methyl]benzene-1,3-dicarboxamide]: the values for the Emax in the experiment on UMUC9 cells (% efficacy (span)) and on PPARG receptors were 86.6% and 106%, respectively. The IC50 came to 21.6 nM with UMUC9 cells (UM-UC-9, relative IC50) and 1.3 nM at PPARG receptors (setting [1]).
For `Cc1cc(-c2nnco2)ccc1NC(=O)c1cc(C(=O)NCc2ccc(F)c(F)c2)c(F)cc1Cl` [Example 10, 4-chloro-N^1-[(3,4-difluorophenyl)methyl]-6-fluoro-N^3-[2-methyl-4-(1,3,4-oxadiazol-2-yl)phenyl]benzene-1,3-dicarboxamide], the Emax in the experiment with UMUC9 cells (% efficacy (span)) was 86.7%; at PPARG receptors, 108%. Also, at PPARG receptors (setting [2]), the IC50 was found to be 4.8 nM.
Turning to `Cc1cc(C(F)(F)F)ccc1NC(=O)c1cc(C(=O)NC(CO)c2ccccc2)c(F)cc1Cl` (single isomer, unassigned) [Example 30, 4-chloro-6-fluoro-N^1-[(1R*)-2-hydroxy-1-phenylethyl]-N^3-[2-methyl-4-(trifluoromethyl)phenyl]benzene-1,3-dicarboxamide], the Emax in the experiment with UMUC9 cells (% efficacy (span)) turned out to be 49.6%. Moreover, the IC50 in the experiment with UMUC9 cells (UM-UC-9, relative IC50) stood at 66.1 nM; at PPARG receptors (setting [1]) it was 17.5 nM. Further, on PPARG receptors (bladder cancer cell line RT-112/84, NanoLuc in FABP4 3′ UTR), the “PPARG_RT-112_FABP4_NLuc_inverse agonist Efficacy - [%]” value is given as 105.50%.
